Measured values published in US8889711B2, “Pyrazolopyridine derivatives as anticancer agent” (Pierre Fabre Medicament, priority 2009, dated 2014).

Tested on: karpas 299 cells
Assay: Measurement of inhibition of cell proliferation (Karpas), ATPlite
Assay type: cell-based
Details: 72 hours
Protocol: Measurement of Inhibition of Cell Proliferation (Karpas):
The antiproliferative activities of the compounds were measured using the ATPlite technique (Perkin Elmer).
The non-adhering cells (karpas 299) are seeded in 96-well plates (300 000 cells/ml) on Day 1 at a concentration compatible with logarithmic growth for 72 hours required for evaluation of the compounds. All the cells are treated on Day 1, then placed in an incubator at 37° C. under 5% CO2 atmosphere. Cell viability is evaluated on Day 4 by assay of released ATP, characteristic of viable cells. The IC50 values are determined by non-linear regression on the basis of a sigmoid model of dose/response relationship, Hill's slope coefficient being left variable, performed using GraphPad software sequence with the supplied algorithm.

IC50 [nM]	SMILES
> 10000	Cc1n[nH]c2nc(-c3ccc(O)cc3F)c(C#N)c(-c3csc(C4CCNCC4)n3)c12 [Compound 152]

Same assay, conditions: Homo sapiens, KARPAS-299, 72 h

IC50 [nM]	SMILES
1000 to 10000	Cc1n[nH]c2nc(-c3c(F)cc(O)cc3F)c(C#N)c(-c3ccc(N4CC[C@@H](N)C4)o3)c12 [Compound 155]
> 10000	CNc1ccc(-c2nc3[nH]nc(C)c3c(-c3ccc(N4CCNCC4)cc3)c2C#N)c(F)c1 [Compound 222]
1000 to 10000	Cc1n[nH]c2nc(-c3ccc(O)cc3Cl)c(C#N)c(-c3ccc(N4CCNCC4)cc3)c12 [Compound 254]
100 to 1000	N#Cc1c(-c2ccc(O)cc2F)nc2[nH]nc(-c3ccco3)c2c1-c1ccc(N2CCNCC2)cc1 [Compound 197]
> 10000	N#Cc1c(-c2ccnc(O)c2)nc2[nH]nc(-c3cccs3)c2c1-c1ccc(N2CCNCC2)cc1 [Compound 282]
> 10000	Cc1n[nH]c2nc(-c3ccc(O)cc3F)c(C#N)c(C(=O)NC3CCNCC3)c12 [Compound 168]
100 to 1000	Cc1cc(-c2nc3[nH]nc(-c4cccs4)c3c(-c3ccc(N4CCNCC4)cc3)c2C#N)c(F)cc1O [Compound 278]
> 10000	Cc1n[nH]c2nc(-c3c(F)ccc(F)c3F)c(C#N)c(-c3ccc(N4CCNCC4)cc3)c12 [Compound 161]
< 100	COC(=O)c1c(-c2ccc(O)c(C)c2)nc2[nH]nc(C)c2c1-c1ccc(N2CCNCC2)cc1 [Compound 293]
1000 to 10000	N#Cc1c(-c2ccc(O)cc2F)nc2[nH]nc(N)c2c1-c1ccc(N2CC[C@H](N)C2)cc1 [Compound 188]
1000 to 10000	Cc1n[nH]c2nc(-c3ccc(O)cc3F)c(C#N)c(-c3ccc(C#N)cc3)c12 [Compound 148]
> 10000	Cc1c(C#N)c(-c2ccc(O)cc2)nc2[nH]nc(-c3ccnc(N4CCN(C)CC4)c3)c12 [Compound 103]
1000 to 10000	N#Cc1c(-c2ccc(O)cc2)nc2[nH]ncc2c1-c1ccc(O)cc1 [Compound 17]
> 10000	N#Cc1c(-c2cnn[nH]2)nc2[nH]nc(-c3cccs3)c2c1-c1ccc(N2CCNCC2)cc1 [Compound 279]
> 10000	N#Cc1c(-c2ccc(O)cc2)nc2[nH]ncc2c1-c1ccc(Cn2ccnc2)cc1 [Compound 54]
100 to 1000	N#Cc1c(-c2ccc(O)cc2F)nc2[nH]nc(-c3ccc(-c4ccccc4)cc3)c2c1-c1ccc(N2CCNCC2)cc1 [Compound 236]
100 to 1000	N#Cc1cc2c(-c3ccc(N4CCNCC4)cc3)n[nH]c2nc1-c1ccc(O)cc1 [Compound 102]
> 10000	N#Cc1c(-c2ccc(O)cc2F)nc2[nH]nc(N)c2c1-c1ccc(-c2ccc(S(N)(=O)=O)cc2)o1 [Compound 271]
100 to 1000	CN(C)CCCOc1ccc(-c2c(C#N)c(-c3ccc(O)cc3F)nc3[nH]nc(N)c23)cc1 [Compound 194]
1000 to 10000	CN(C)CCN1CCN(c2ccc(-c3c(C#N)c(-c4ccc(O)cc4)nc4[nH]nc(-c5ccc(Cl)cc5)c34)c(F)c2)CC1 [Compound 299]
1000 to 10000	N#Cc1c(-c2ccc(O)cc2F)nc2[nH]ncc2c1-c1ccc(-c2nn[nH]n2)cc1 [Compound 101]
1000 to 10000	N#Cc1c(-c2ccc(O)c(F)c2)cc2[nH]ncc2c1-c1ccco1 [Compound 76]
100 to 1000	Cc1n[nH]c2nc(-c3ccc(O)cc3F)c(C#N)c(-c3ccc(N4CCN(C)CC4)s3)c12 [Compound 184]
1000 to 10000	Cc1c(C#N)c(-c2ccc(O)cc2F)nc2[nH]nc(-c3ccc(N(C)CCN(C)C)nc3)c12 [Compound 119]
> 10000	Cc1n[nH]c2nc(-c3ccc(O)cc3F)c(C#N)c(-c3ccc(S(=O)(=O)O)o3)c12 [Compound 137]

Target: ALK kinase (Homo sapiens, UniProt Q9UM73)
Sequence (Q9UM73 19-1620): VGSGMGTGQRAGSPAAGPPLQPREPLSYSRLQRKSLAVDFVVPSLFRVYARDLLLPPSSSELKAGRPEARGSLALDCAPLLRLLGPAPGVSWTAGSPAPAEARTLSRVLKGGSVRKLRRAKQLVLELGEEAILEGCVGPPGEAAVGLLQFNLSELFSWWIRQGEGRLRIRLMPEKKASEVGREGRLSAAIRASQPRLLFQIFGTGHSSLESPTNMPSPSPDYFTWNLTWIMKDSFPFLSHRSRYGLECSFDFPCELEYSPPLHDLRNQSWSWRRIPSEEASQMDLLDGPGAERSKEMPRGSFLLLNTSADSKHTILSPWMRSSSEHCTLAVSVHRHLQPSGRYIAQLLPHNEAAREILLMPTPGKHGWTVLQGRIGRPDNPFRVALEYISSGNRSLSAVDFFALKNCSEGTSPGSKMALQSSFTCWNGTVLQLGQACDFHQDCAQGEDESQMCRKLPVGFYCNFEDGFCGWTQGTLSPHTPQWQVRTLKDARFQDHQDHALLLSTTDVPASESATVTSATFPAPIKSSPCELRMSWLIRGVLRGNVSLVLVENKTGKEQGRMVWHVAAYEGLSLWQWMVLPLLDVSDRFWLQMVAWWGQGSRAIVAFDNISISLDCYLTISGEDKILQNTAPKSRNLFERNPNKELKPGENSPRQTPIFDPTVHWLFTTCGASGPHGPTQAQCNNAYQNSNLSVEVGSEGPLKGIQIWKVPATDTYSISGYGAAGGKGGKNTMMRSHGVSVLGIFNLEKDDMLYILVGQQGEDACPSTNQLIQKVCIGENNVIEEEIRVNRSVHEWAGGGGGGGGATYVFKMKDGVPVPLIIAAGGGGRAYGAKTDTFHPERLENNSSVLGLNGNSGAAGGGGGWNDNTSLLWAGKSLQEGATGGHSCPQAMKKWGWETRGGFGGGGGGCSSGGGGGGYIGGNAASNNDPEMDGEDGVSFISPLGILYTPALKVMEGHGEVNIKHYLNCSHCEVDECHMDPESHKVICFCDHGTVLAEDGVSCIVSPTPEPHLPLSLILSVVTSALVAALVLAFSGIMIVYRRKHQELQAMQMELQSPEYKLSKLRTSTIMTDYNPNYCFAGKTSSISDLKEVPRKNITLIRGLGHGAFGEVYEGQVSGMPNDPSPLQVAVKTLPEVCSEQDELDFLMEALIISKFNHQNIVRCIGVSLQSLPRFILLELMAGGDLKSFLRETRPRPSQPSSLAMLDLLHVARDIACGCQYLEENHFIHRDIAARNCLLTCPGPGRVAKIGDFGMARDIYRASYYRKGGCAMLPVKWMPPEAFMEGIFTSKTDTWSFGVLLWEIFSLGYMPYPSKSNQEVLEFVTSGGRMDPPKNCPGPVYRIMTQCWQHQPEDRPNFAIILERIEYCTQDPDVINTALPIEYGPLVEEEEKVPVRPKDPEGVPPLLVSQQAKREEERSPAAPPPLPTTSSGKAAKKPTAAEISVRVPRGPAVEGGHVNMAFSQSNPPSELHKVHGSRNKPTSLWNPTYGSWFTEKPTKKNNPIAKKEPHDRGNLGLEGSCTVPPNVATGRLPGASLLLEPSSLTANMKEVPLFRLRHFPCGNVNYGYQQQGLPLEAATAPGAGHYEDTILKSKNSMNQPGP
Assay: Test to measure ALK kinase inhibition (GST-PLCγ1 substrate, anti-phosphotyrosine ELISA, luminescence)
Assay type: biochemical
Details: ALK kinase 180 ng/ml, 250 μM ATP, 30 minutes at 30° C.
Protocol: Test to Measure ALK Kinase Inhibition
A ViewPlate (Packard) is incubated with the GST-PLCγ1 substrate (purified recombinant form) at 0.1 mg/ml in phosphate buffer (PBS pH 7.4)(100 μl/well) for one hour under shaking. The plate is then saturated with a blocking solution containing 5% bovine serum albumin (BSA) (SIGMA) in PBS buffer pH 7.4.
After adding the inhibitor at the desired final concentration (usual range of 30 μM to 10 nM), the reaction is conducted by adding the ALK kinase at 180 ng/ml in 13 mM Tris reaction buffer pH 7.5 (SIGMA); 6.5 mM MgCl2 (MERCK); 0.65 mM DiThioThreitol (DTT) (ACROS); 39 mM sodium β-glycerophosphate (TCI); 0.65 mM sodium orthovanadate (SIGMA) and 250 μM ATP (SIGMA). Incubation is carried out for 30 minutes at 30° C. under shaking.
After three washings under shaking in 0.1% PBS/Tween-20 buffer (SIGMA), an anti-phosphotyrosine antibody coupled with HRP (UBI) diluted to 1/1000th in PBS/BSA buffer 5 mg/ml, is incubated for one hour under shaking. After three further washings in 0.1% PBS/Tween-20, the wells are incubated two minutes with 100 μl of SuperSignal ELISA mixture (PIERCE).
The signal is read in luminescent mode using a luminometer (MOLECULAR DEVICES SpectraMax M5e).

IC50 [nM]	SMILES
< 100	Cc1n[nH]c2nc(-c3c(F)cc(O)cc3F)c(C#N)c(-c3ccc(N4CC[C@@H](N)C4)o3)c12 [Compound 155]
1000 to 10000	CNc1ccc(-c2nc3[nH]nc(C)c3c(-c3ccc(N4CCNCC4)cc3)c2C#N)c(F)c1 [Compound 222]
100 to 1000	Cc1n[nH]c2nc(-c3ccc(O)cc3Cl)c(C#N)c(-c3ccc(N4CCNCC4)cc3)c12 [Compound 254]
< 100	N#Cc1c(-c2ccc(O)cc2F)nc2[nH]nc(-c3ccco3)c2c1-c1ccc(N2CCNCC2)cc1 [Compound 197]
1000 to 10000	N#Cc1c(-c2ccnc(O)c2)nc2[nH]nc(-c3cccs3)c2c1-c1ccc(N2CCNCC2)cc1 [Compound 282]
1000 to 10000	Cc1n[nH]c2nc(-c3ccc(O)cc3F)c(C#N)c(C(=O)NC3CCNCC3)c12 [Compound 168]
< 100	Cc1cc(-c2nc3[nH]nc(-c4cccs4)c3c(-c3ccc(N4CCNCC4)cc3)c2C#N)c(F)cc1O [Compound 278]
100 to 1000	Cc1n[nH]c2nc(-c3c(F)ccc(F)c3F)c(C#N)c(-c3ccc(N4CCNCC4)cc3)c12 [Compound 161]
< 100	COC(=O)c1c(-c2ccc(O)c(C)c2)nc2[nH]nc(C)c2c1-c1ccc(N2CCNCC2)cc1 [Compound 293]
< 100	N#Cc1c(-c2ccc(O)cc2F)nc2[nH]nc(N)c2c1-c1ccc(N2CC[C@H](N)C2)cc1 [Compound 188]
1000 to 10000	Cc1n[nH]c2nc(-c3ccc(O)cc3F)c(C#N)c(-c3ccc(C#N)cc3)c12 [Compound 148]
100 to 1000	Cc1c(C#N)c(-c2ccc(O)cc2)nc2[nH]nc(-c3ccnc(N4CCN(C)CC4)c3)c12 [Compound 103]
100 to 1000	N#Cc1c(-c2ccc(O)cc2)nc2[nH]ncc2c1-c1ccc(O)cc1 [Compound 17]
1000 to 10000	N#Cc1c(-c2cnn[nH]2)nc2[nH]nc(-c3cccs3)c2c1-c1ccc(N2CCNCC2)cc1 [Compound 279]
1000 to 10000	N#Cc1c(-c2ccc(O)cc2)nc2[nH]ncc2c1-c1ccc(Cn2ccnc2)cc1 [Compound 54]
< 100	N#Cc1c(-c2ccc(O)cc2F)nc2[nH]nc(-c3ccc(-c4ccccc4)cc3)c2c1-c1ccc(N2CCNCC2)cc1 [Compound 236]
< 100	N#Cc1cc2c(-c3ccc(N4CCNCC4)cc3)n[nH]c2nc1-c1ccc(O)cc1 [Compound 102]
100 to 1000	N#Cc1c(-c2ccc(O)cc2F)nc2[nH]nc(N)c2c1-c1ccc(-c2ccc(S(N)(=O)=O)cc2)o1 [Compound 271]
< 100	CN(C)CCCOc1ccc(-c2c(C#N)c(-c3ccc(O)cc3F)nc3[nH]nc(N)c23)cc1 [Compound 194]
< 100	CN(C)CCN1CCN(c2ccc(-c3c(C#N)c(-c4ccc(O)cc4)nc4[nH]nc(-c5ccc(Cl)cc5)c34)c(F)c2)CC1 [Compound 299]
1000 to 10000	N#Cc1c(-c2ccc(O)cc2F)nc2[nH]ncc2c1-c1ccc(-c2nn[nH]n2)cc1 [Compound 101]
100 to 1000	N#Cc1c(-c2ccc(O)c(F)c2)cc2[nH]ncc2c1-c1ccco1 [Compound 76]
< 100	Cc1n[nH]c2nc(-c3ccc(O)cc3F)c(C#N)c(-c3ccc(N4CCN(C)CC4)s3)c12 [Compound 184]
100 to 1000	Cc1c(C#N)c(-c2ccc(O)cc2F)nc2[nH]nc(-c3ccc(N(C)CCN(C)C)nc3)c12 [Compound 119]
100 to 1000	Cc1n[nH]c2nc(-c3ccc(O)cc3F)c(C#N)c(-c3ccc(S(=O)(=O)O)o3)c12 [Compound 137]
100 to 1000	Cc1n[nH]c2nc(-c3ccc(O)cc3F)c(C#N)c(-c3csc(C4CCNCC4)n3)c12 [Compound 152]
